According to ChEMBL document CHEMBL4828769, “Discovery of AS-0141, a Potent and Selective Inhibitor of CDC7 Kinase for the Treatment of Solid Cancers” (J Med Chem, 2021):

Columns and labels:
[1] = Apparent permeability across apical to basolateral side in human Caco-2 cells; assay type: ADME, cell-based
[2] = target: T1, Glycogen synthase kinase-3 alpha (Homo sapiens, UniProt P49840); assay: Inhibition of GSK3alpha (unknown origin) at 0.1 uM in presence of 1 mM ATP relative to control
Target sequence in this assay (P49840 2-483 limits assumed): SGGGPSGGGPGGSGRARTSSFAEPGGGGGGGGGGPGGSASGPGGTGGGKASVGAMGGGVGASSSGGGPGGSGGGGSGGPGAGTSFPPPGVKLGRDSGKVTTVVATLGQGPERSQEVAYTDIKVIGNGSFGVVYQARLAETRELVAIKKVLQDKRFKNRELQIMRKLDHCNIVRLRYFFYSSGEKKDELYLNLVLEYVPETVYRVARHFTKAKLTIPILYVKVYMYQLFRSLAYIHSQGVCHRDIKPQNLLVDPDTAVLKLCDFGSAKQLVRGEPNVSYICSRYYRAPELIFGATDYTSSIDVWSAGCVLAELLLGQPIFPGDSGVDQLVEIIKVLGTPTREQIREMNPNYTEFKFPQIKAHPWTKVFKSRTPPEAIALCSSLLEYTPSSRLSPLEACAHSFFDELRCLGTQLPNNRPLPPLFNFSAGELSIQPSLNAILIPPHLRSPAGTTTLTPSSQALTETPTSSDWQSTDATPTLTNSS

[3] = target: Dual specificity protein kinase CLK2 (Homo sapiens, UniProt P49760); assay: Inhibition of CLK2 (unknown origin) in presence of 1 mM ATP with preincubation
[4] = AUC(0 to infinity) in dog at 1 mg/kg, iv; assay type: ADME, organism-based, Canis lupus familiaris; set-up: route intravenous, time infinity, dose 1 mg/kg; conditions: in vivo
[5] = target: T2, Cell division cycle 7-related protein kinase (Homo sapiens, UniProt O00311); assay: Inhibition of CDC7 in human COLO205 cells assessed as reduction in MCM2 phosphorylation at S53 residue at 0.1 uM incubated for 48 hrs by Western blot analysis relative to control; assay type: cell-based; conditions: COLO 205
Target sequence in this assay (O00311 whole entry, looked up): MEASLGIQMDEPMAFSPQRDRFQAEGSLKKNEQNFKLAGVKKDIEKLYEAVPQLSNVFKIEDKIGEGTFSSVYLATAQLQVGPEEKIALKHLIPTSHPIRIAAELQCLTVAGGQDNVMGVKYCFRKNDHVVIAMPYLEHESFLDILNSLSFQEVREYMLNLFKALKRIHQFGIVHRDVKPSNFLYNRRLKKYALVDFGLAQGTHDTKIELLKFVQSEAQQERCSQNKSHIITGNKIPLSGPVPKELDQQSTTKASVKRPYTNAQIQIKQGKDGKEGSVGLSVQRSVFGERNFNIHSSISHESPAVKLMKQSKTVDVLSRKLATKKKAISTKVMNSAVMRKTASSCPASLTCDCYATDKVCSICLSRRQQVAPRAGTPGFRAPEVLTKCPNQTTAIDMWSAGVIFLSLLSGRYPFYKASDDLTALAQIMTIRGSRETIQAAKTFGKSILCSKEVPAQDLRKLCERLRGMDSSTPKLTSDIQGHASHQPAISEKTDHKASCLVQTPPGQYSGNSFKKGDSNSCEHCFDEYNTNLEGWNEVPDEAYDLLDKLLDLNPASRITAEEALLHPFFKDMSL

[6] = MRT in rat at 2 mg/kg, iv; assay type: ADME, organism-based; conditions: in vivo
[7] = species: Homo sapiens; assay: Selectivity index, ratio of IC50 for CLK2 (unknown origin) in presence of 1 mM ATP without preincubation to IC50 for CLK2 (unknown origin) in presence of 1 mM ATP with preincubation
[8] = Half life in dog at 1 mg/kg, iv; assay type: ADME, organism-based, Canis lupus familiaris; conditions: in vivo
[9] = Inhibition of human CDC7/ASK using FITC-labelled MCM2 substrate in presence of 5 uM of ATP
[10] = Cmax in rat at 10 mg/kg, po; assay type: ADME, organism-based; set-up: route oral, dose 10 mg/kg; conditions: in vivo
[11] = Oral bioavailability in dog at 2 mg/kg; assay type: ADME, organism-based, Canis lupus familiaris; conditions: in vivo
[12] = tested on: SW-620; assay: Induction of apoptosis in human SW-620 cells assessed as increase in cleaved PARP level incubated for 48 hrs by Western blot analysis; assay type: functional, cell-based; conditions: dose 0.03-1 µM
[13] = Cmax in dog at 1 mg/kg, iv; assay type: ADME, organism-based, Canis lupus familiaris; set-up: route intravenous, dose 1 mg/kg; conditions: in vivo
[14] = Inhibition of human CDC7/ASK using FITC-labelled MCM2 substrate preincubated for 30 mins followed by substrate addition and measured after 5 hrs in presence of 1 mM of ATP
[15] = target: Dual specificity protein kinase CLK1 (Homo sapiens, UniProt P49759); assay: Inhibition of CLK1 (unknown origin) in presence of 1 mM ATP with preincubation
[16] = Oral bioavailability in rat at 10 mg/kg; assay type: ADME, organism-based; conditions: in vivo
[17] = tested on: SW-620; assay: Induction of apoptosis in human SW-620 cells assessed as increase in gamma-H2AX level incubated for 48 hrs by Western blot analysis; assay type: functional, cell-based; conditions: dose 0.03-1 µM
[18] = target: T2, Cell division cycle 7-related protein kinase; assay: Inhibition of CDC7 in human SW-620 cells assessed as reduction in phosphorylation of MCM2 at Ser53 residue incubated for 48 hrs by Western blot analysis; assay type: cell-based
[19] = Oral bioavailability in mouse at 10 mg/kg; assay type: ADME, organism-based; conditions: in vivo
[20] = Cmax in mouse at 1 mg/kg, iv; assay type: ADME, organism-based; set-up: route intravenous, dose 1 mg/kg; conditions: in vivo
[21] = target: Serine/threonine-protein kinase pim-1 (Homo sapiens, UniProt P11309); assay: Inhibition of PIM1 (unknown origin) at 0.1 uM in presence of 1 mM ATP relative to control
[22] = Clearance in rat at 2 mg/kg, iv; assay type: ADME, organism-based; conditions: in vivo
[23] = target: T1, Glycogen synthase kinase-3 alpha; assay: Inhibition of GSK3alpha (unknown origin) in presence of 1 mM ATP with preincubation
Target sequence in this assay (P49840 whole entry): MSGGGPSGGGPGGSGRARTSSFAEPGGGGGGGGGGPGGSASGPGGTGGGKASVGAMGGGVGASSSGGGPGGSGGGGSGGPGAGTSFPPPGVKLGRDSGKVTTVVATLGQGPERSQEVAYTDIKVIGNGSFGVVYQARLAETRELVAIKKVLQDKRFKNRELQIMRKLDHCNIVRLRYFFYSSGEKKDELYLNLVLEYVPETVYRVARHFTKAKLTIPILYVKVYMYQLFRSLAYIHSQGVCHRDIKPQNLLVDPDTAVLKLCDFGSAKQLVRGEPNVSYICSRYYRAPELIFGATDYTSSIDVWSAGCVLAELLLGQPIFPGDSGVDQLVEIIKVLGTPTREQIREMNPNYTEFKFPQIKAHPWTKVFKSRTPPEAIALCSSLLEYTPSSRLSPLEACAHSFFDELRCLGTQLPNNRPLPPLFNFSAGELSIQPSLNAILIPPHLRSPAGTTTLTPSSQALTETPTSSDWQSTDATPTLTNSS

[24] = Tmax in mouse at 10 mg/kg, po; assay type: ADME, organism-based; conditions: in vivo

Sequence of Dual specificity protein kinase CLK2 (P49760 whole entry): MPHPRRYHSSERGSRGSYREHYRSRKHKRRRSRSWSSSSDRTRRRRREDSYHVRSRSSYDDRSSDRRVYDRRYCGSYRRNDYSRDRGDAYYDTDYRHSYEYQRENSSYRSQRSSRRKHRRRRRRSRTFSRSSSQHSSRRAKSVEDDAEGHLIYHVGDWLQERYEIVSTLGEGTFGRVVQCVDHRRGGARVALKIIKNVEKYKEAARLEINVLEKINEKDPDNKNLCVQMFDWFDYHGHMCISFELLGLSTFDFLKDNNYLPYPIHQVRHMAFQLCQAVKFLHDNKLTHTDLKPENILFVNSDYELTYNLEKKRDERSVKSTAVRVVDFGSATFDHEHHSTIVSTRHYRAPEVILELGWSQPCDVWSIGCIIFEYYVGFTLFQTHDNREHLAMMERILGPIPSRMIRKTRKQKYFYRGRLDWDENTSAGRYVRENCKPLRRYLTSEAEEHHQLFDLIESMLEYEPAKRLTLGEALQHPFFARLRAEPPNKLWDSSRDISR
Sequence of Dual specificity protein kinase CLK1 (P49759 whole entry): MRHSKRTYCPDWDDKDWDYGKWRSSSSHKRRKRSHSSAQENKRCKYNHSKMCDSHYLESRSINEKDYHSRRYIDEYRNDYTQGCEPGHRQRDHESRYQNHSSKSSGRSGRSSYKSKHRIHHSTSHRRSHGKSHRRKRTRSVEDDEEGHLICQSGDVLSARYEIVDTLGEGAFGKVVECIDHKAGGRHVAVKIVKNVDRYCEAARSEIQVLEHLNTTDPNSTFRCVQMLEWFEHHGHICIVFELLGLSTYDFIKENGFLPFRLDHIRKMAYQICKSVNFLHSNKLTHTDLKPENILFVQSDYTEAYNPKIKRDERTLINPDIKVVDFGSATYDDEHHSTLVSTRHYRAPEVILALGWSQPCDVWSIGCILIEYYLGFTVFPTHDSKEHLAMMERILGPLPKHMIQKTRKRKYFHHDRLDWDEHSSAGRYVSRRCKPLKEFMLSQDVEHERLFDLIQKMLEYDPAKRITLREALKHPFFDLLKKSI
Sequence of Serine/threonine-protein kinase pim-1 (P11309 whole entry, looked up): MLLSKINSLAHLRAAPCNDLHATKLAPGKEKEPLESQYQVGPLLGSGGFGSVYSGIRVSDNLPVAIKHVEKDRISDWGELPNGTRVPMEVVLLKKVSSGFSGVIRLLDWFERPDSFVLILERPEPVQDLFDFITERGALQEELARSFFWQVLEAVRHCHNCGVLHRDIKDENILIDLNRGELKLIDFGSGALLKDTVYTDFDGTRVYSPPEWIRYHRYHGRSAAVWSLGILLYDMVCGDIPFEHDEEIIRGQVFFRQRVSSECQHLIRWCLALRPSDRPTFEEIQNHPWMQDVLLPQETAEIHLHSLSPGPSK

Papp A→B [1]: 24.9 ×10⁻⁶ cm/s | inhibition [2]: > 30% | IC50 [3]: 227 nM | AUC(0-inf) [4]: 1250 ng·h/mL | inhibition [5]: 100% | MRT [6]: 1.45 h | Ratio IC50 [7]: 1.2 | half-life [8]: 4.8 h | IC50 [9]: 8.2 nM | Cmax [10]: 426 ng/mL | bioavailability [11]: 33.3% | Cmax [13]: 298 ng/mL | IC50 [14]: 2.4 nM | IC50 [15]: 206 nM | bioavailability [16]: 54.4% | IC50 [18]: 53 nM | inhibition ([18]; dose 0.03-1 µM): Dose-Dependent Effect | bioavailability [19]: 30.6% | Cmax [20]: 408 ng/mL | inhibition [21]: > 30% | clearance [22]: 37.7 mL/min/kg | IC50 [23]: 251 nM | Tmax [24]: 4.98 min
Structure (SMILES): CCOC(=O)C1=C(NN2CCN(CC(F)(F)F)CC2)O/C(=C\c2c[nH]c3ncccc23)C1=O [MONZOSERTIB]
Activity [12]: Dose-Dependent Effect | Activity [17]: Dose-Dependent Effect
